# Data: patent US8729082B2, “Substituted imidazoquinoxalines” (Bayer Intellectual Property GmbH, priority 2009, dated 2014)
# Biological target: T1, human kinase Mps-1 (Homo sapiens, UniProt P33981)
# T1 construct: N-terminally GST-tagged human full length recombinant Mps-1 kinase; purchased Invitrogen, Karslruhe, Germany PV4071
# T1 sequence (P33981 1-857): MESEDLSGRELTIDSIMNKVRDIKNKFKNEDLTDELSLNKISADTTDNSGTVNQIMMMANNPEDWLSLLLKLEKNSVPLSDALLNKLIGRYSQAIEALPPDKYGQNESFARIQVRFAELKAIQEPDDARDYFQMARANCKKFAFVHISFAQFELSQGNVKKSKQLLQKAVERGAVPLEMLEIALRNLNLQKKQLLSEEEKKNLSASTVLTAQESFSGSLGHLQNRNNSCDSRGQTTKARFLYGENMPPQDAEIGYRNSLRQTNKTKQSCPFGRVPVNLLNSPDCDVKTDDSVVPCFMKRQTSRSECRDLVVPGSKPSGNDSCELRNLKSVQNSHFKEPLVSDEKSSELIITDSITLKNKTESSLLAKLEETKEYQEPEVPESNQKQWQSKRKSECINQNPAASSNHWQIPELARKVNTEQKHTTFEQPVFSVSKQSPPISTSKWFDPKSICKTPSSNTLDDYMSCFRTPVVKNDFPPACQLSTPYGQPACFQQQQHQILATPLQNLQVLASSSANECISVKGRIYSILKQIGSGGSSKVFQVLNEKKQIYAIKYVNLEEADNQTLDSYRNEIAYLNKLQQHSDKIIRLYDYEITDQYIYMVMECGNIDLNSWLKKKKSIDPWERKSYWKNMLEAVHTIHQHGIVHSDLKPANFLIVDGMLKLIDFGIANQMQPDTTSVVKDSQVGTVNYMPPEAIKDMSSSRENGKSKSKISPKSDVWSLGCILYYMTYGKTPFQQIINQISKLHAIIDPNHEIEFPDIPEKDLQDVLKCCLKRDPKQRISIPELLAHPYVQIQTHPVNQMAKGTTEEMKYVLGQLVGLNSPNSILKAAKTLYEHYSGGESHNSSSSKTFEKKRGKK
# Assay: Mps-1 kinase assay (HTRF)
# Assay type: biochemical
# Settings: lowATP; mean; read-out: Mps1 lowATP mean IC50
# In short: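 HTRF readout: EDTA-stopped reactions incubated 1 h with europium anti-phospho(Ser/Thr) antibody and streptavidin-XLent, emission ratio 665/620 nm after 350 nm excitation. Kinase step: compound pre-bound 15 min to ~1 nM GST-Mps-1, then 60 min at 22 °C with ATP and biotin-peptide substrate; inhibition scaled between no-inhibitor (0%) and no-enzyme (100%) controls.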
row,IC50 [nM],SMILES
1,4950,"CNC(=O)Nc1ccc(-c2cnc3c(NCCCOC)nc4ccc(F)cc4n23)cc1 [Example 2-71, 1-(4-{8-fluoro-4-[(3-methoxypropyl)amino]imidazo[1,2-a]quinoxalin-1-yl}phenyl)-3-methylurea]"
2,2490,"CNC(=O)Nc1ccc(-c2cnc3c(NCc4cnn(C)c4)nc4ccc(F)cc4n23)cc1 [Example 2-72, 1-[4-(8-fluoro-4-{[(1-methyl-1H-pyrazol-4-yl)methyl]amino}imidazo[1,2-a]quinoxalin-1-yl)phenyl]-3-methylurea]"
3,9910,"CNC(=O)Nc1ccc(-c2cnc3c(NCCS(N)(=O)=O)nc4ccc(F)cc4n23)cc1 [Example 2-73, 2-[(8-fluoro-1-{4-[(methylcarbamoyl)amino]phenyl}imidazo[1,2-a]quinoxalin-4-yl)amino]ethanesulfonamide]"
4,10100,"CNC(=O)Nc1ccc(-c2cnc3c(NCC(O)CO)nc4ccc(F)cc4n23)cc1 (stereo not shown) [Example 2-74, 1-(4-{4-[(2,3-dihydroxypropyl)amino]-8-fluoroimidazo[1,2-a]quinoxalin-1-yl}phenyl)-3-methylurea]"
5,1080,"CCCNc1nc2ccc(F)cc2n2c(-c3ccc(C(=O)NC4CC4)c(Cl)c3)cnc12 [Example 2-75, 2-chloro-N-cyclopropyl-4-[8-fluoro-4-(propylamino)imidazo[1,2-a]quinoxalin-1-yl]benzamide]"
6,10900,"O=C(NC1CC1)c1ccc(-c2cnc3c(NCCCN4CCOCC4)nc4ccc(F)cc4n23)cc1Cl [Example 2-76, 2-chloro-N-cyclopropyl-4-(8-fluoro-4-{[3-(morpholin-4-yl)propyl]amino}imidazo[1,2-a]quinoxalin-1-yl)benzamide]"
7,10100,"O=C(NC1CC1)c1ccc(-c2cnc3c(NCCCN4CCCC4=O)nc4ccc(F)cc4n23)cc1Cl [Example 2-77, 2-chloro-N-cyclopropyl-4-(8-fluoro-4-{[3-(2-oxopyrrolidin-1-yl)propyl]amino}imidazo[1,2-a]quinoxalin-1-yl)benzamide]"
8,6700,"COCCNc1nc2ccc(F)cc2n2c(-c3ccc(C(=O)NC4CC4)c(Cl)c3)cnc12 [Example 2-78, 2-chloro-N-cyclopropyl-4-{8-fluoro-4-[(2-methoxyethyl)amino]imidazo[1,2-a]quinoxalin-1-yl}benzamide]"
9,1330,"O=C(NC1CC1)c1ccc(-c2cnc3c(NCCCCO)nc4ccc(F)cc4n23)cc1Cl [Example 2-79, 2-chloro-N-cyclopropyl-4-{8-fluoro-4-[(4-hydroxybutyl)amino[imidazo]1,2-a]quinoxalin-1-yl}benzamide]"
10,3040,"O=C(NC1CC1)c1ccc(-c2cnc3c(NCCCO)nc4ccc(F)cc4n23)cc1Cl [Example 2-80, 2-chloro-N-cyclopropyl-4-{8-fluoro-4-[(3-hydroxypropyl)amino]imidazo[1,2-a]quinoxalin-1-yl}benzamide]"
11,1420,"O=C(NC1CC1)c1ccc(-c2cnc3c(NCc4cccnc4)nc4ccc(F)cc4n23)cc1Cl [Example 2-81, 2-chloro-N-cyclopropyl-4-{8-fluoro-4-[(pyridin-3-ylmethyl)amino]imidazo[1,2-a]quinoxalin-1-yl}benzamide]"
12,1090,"O=C(NC1CC1)c1ccc(-c2cnc3c(NCc4ccncc4)nc4ccc(F)cc4n23)cc1Cl [Example 2-82, 2-chloro-N-cyclopropyl-4-{8-fluoro-4-[(pyridin-4-ylmethyl)amino]imidazo[1,2-a]quinoxalin-1-yl}benzamide]"
13,6700,"COCCCNc1nc2ccc(F)cc2n2c(-c3ccc(C(=O)NC4CC4)c(Cl)c3)cnc12 [Example 2-83, 2-chloro-N-cyclopropyl-4-{8-fluoro-4-[(3-methoxypropyl)amino]imidazo[1,2-a]quinoxalin-1-yl}benzamide]"
14,2880,"CC(C)(C)OC(=O)NCCCNc1nc2ccc(F)cc2n2c(-c3ccc(C(=O)NC4CC4)c(Cl)c3)cnc12 [Example 2-84, tert-butyl [3-({1-[3-chloro-4-(cyclopropylcarbamoyl)phenyl]-8-fluoroimidazo[1,2-a]quinoxalin-4-yl}amino)propyl]carbamate]"
15,761,"Cn1nccc1CNc1nc2ccc(F)cc2n2c(-c3ccc(C(=O)NC4CC4)c(Cl)c3)cnc12 [Example 2-85, 2-chloro-N-cyclopropyl-4-(8-fluoro-4-{[(1-methyl-1H-pyrazol-5-yl)methyl]amino}imidazo[1,2-a]quinoxalin-1-yl)benzamide]"
16,1640,"Cn1cc(CNc2nc3ccc(F)cc3n3c(-c4ccc(C(=O)NC5CC5)c(Cl)c4)cnc23)cn1 [Example 2-86, 2-chloro-N-cyclopropyl-4-(8-fluoro-4-{[(1-methyl-1H-pyrazol-4-yl)methyl]amino}imidazo[1,2-a]quinoxalin-1-yl)benzamide]"
17,28.6,"CCCNc1nc2cc(F)c(F)cc2n2c(-c3ccc(C(=O)NC4CC4)cc3)cnc12 [Example 2-88, N-cyclopropyl-4-[7,8-difluoro-4-(propylamino)imidazo[1,2-a]quinoxalin-1-yl]benzamide]"
18,286,"O=C(NC1CC1)c1ccc(-c2cnc3c(NCCO)nc4cc(F)c(F)cc4n23)cc1 [Example 2-89, N-cyclopropyl-4-{7,8-difluoro-4-[(2-hydroxyethyl)amino]imidazo[1,2-a]quinoxalin-1-yl}benzamide]"
19,438,"O=C(NC1CC1)c1ccc(-c2cnc3c(NCCCN4CCOCC4)nc4cc(F)c(F)cc4n23)cc1 [Example 2-90, N-cyclopropyl-4-(7,8-difluoro-4-{[3-(morpholin-4-yl)propyl]amino}imidazo[1,2-a]quinoxalin-1-yl)benzamide]"
20,55.5,"CC(C)CCNc1nc2cc(F)c(F)cc2n2c(-c3ccc(C(=O)NC4CC4)cc3)cnc12 [Example 2-91, N-cyclopropyl-4-{7,8-difluoro-4-[(3-methylbutyl)amino]imidazo[1,2-a]quinoxalin-1-yl}benzamide]"
21,143,"O=C(NC1CC1)c1ccc(-c2cnc3c(NCc4cccc(F)c4)nc4cc(F)c(F)cc4n23)cc1 [Example 2-92, N-cyclopropyl-4-{7,8-difluoro-4-[(3-fluorobenzyl)amino]imidazo[1,2-a]quinoxalin-1-yl}benzamide]"
22,382,"O=C(NC1CC1)c1ccc(-c2cnc3c(NCCCN4CCCC4=O)nc4cc(F)c(F)cc4n23)cc1 [Example 2-93, N-cyclopropyl-4-(7,8-difluoro-4-{[3-(2-oxopyrrolidin-1-yl)propyl]amino}imidazo[1,2-a]quinoxalin-1-yl)benzamide]"
23,161,"COCCNc1nc2cc(F)c(F)cc2n2c(-c3ccc(C(=O)NC4CC4)cc3)cnc12 [Example 2-94, N-cyclopropyl-4-{7,8-difluoro-4-[(2-methoxyethyl)amino]imidazo[1,2-a]quinoxalin-1-yl}benzamide]"
24,75.8,"O=C(NC1CC1)c1ccc(-c2cnc3c(NCc4ccc(F)cc4)nc4cc(F)c(F)cc4n23)cc1 [Example 2-95, N-cyclopropyl-4-{7,8-difluoro-4-[(4-fluorobenzyl)amino]imidazo[1,2-a]quinoxalin-1-yl}benzamide]"
25,59.5,"O=C(NC1CC1)c1ccc(-c2cnc3c(NCCCCO)nc4cc(F)c(F)cc4n23)cc1 [Example 2-96, N-cyclopropyl-4-{7,8-difluoro-4-[(4-hydroxybutyl)amino]imidazo[1,2-a]quinoxalin-1-yl}benzamide]"
